This experiment concerns the target GCN2 (Homo sapiens (Human), UniProt Q9P2K8). As to the kind of experiment: GCN2 Biochemical Assay (TR-FRET, GFP-eIF2S1 substrate phosphorylation). Conditions: read-out: IC50 (GCN2 Inhibitory Activity). In a few lines: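 In-house GCN2 (1.6 nM 2× stock) phosphorylates GFP-eIF2S1 (50 nM 2× stock) with ATP (0.2 mM 2× stock) and tRNA, pH 7.5, 70 min at room temperature; 10-point 3.16-fold compound series. TR-FRET detection with Tb-anti-phospho antibody, 2–3 h, Ex 340/Em 490/520 nm; artifact plate spiked with phospho-substrate.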

The values below come from patent US20240025884A1 (Dong-A ST Co., Ltd., priority 2022, published 2024).

SMILES strings stand for the structures. pIC50: −log10 of the molar value.

GCN2, sequence (Q9P2K8 whole entry): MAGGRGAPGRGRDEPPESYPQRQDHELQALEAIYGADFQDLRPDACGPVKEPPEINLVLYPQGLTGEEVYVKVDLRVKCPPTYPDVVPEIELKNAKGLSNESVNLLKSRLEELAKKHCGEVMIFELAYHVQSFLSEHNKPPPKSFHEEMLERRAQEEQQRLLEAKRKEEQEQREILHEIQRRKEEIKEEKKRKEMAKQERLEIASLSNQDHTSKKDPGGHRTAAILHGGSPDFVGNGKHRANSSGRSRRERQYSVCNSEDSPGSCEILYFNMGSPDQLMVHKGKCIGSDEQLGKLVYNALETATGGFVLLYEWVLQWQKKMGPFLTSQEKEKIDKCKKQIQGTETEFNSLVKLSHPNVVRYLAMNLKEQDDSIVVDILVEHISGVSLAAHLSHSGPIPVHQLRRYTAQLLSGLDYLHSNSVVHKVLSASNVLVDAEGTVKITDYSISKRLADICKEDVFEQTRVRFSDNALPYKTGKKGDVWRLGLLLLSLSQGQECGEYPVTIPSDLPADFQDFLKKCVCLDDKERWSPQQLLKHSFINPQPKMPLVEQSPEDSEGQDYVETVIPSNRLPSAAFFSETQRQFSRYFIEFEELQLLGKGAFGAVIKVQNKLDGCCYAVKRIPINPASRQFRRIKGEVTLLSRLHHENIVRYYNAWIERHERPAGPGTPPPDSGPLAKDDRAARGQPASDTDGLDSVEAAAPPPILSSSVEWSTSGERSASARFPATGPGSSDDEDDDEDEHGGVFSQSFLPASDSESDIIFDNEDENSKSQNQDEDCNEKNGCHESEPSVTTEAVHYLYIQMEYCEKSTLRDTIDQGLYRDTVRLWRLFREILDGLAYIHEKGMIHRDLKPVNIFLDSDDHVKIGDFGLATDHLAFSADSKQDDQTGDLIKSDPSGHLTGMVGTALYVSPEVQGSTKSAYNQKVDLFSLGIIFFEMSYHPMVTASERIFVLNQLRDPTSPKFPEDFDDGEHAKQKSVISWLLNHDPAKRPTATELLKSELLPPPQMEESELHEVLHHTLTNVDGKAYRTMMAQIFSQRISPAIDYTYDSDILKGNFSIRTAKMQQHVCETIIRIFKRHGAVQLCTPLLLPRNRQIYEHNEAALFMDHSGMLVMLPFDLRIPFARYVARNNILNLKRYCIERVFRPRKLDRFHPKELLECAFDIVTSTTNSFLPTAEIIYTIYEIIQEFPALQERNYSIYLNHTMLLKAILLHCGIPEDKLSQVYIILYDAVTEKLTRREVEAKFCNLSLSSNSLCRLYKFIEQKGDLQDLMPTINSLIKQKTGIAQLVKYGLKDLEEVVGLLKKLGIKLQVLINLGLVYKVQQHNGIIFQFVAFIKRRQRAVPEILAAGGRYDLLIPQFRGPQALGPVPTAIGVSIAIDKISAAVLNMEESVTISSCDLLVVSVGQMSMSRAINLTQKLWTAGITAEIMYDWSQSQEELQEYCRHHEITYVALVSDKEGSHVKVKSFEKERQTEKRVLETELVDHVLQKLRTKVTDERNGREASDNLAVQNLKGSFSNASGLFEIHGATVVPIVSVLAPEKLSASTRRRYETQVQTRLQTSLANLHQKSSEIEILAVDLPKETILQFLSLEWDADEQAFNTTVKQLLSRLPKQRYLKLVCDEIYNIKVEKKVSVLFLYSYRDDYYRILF

For the compound `Cc1cnc(Nc2cc(C)n(C)n2)nc1-c1c[nH]c2c(N3Cc4c(-c5ccncc5)ccnc4C3=O)cccc12` [Example 494, 6-(3-(2-((1,5-dimethyl-1H-pyrazol-3-yl)amino)-5-methylpyrimidin-4-yl)-1H-indol-7-yl)-4-(pyridin-4-yl)-5,6-dihydro-7H-pyrrolo[3,4-b]pyridin-7-one], the pIC50 was greater than 8.00. The figure for `Cc1cnc(Nc2cc(C)n(C)n2)nc1-c1c[nH]c2c(N3Cc4c(ccnc4-c4cncc(F)c4)C3=O)cccc12` [Example 503, 2-(3-(2-((1,5-dimethyl-1H-pyrazol-3-yl)amino)-5-methylpyrimidin-4-yl)-1H-indol-7-yl)-4-(5-fluoropyridin-3-yl)-2,3-dihydro-1H-pyrrolo[3,4-c]pyridin-1-one] is greater than 8.00; for `COc1ccc2c(-c3nc(Nc4cc(C)n(C)n4)ncc3C)c[nH]c2c1NC(=O)CN1CC[C@H](Oc2ccnc(NCC(F)(F)F)n2)C1` [Example 6, (S)-N-(3-(2-((1,5-dimethyl-1H-pyrazol-3-yl)amino)-5-methylpyrimidin-4-yl)-6-methoxy-1H-indol-7-yl)-2-(3-((2-((2,2,2-trifluoroethyl)amino)pyrimidin-4-yl)oxy)pyrrolidin-1-yl)acetamide] it is 7.00 to 8.00; for `Cc1cnc(Nc2cc(C)n(C)n2)nc1-c1c[nH]c2c(N3Cc4cccc(N5CCOCC5)c4C3=O)cccc12` [Example 347, 2-(3-(2-((1,5-dimethyl-1H-pyrazol-3-yl)amino)-5-methylpyrimidin-4-yl)-1H-indol-7-yl)-7-morpholinoisoindolin-1-one] it is 7.00 to 8.00. `Cc1cnc(Nc2cc(C)n(C)n2)nc1-c1c[nH]c2c(NC(=O)CN3CC[C@H](Oc4nc(Cl)ncc4N)C3)cccc12` [Example 96, (S)-2-(3-((5-amino-2-chloropyrimidin-4-yl)oxy)pyrrolidin-1-yl)-N-(3-(2-((1,5-dimethyl-1H-pyrazol-3-yl)amino)-5-methylpyrimidin-4-yl)-1H-indol-7-yl)acetamide]: the pIC50 is 7.00 to 8.00. For `Cc1cnc(Nc2cc(C)n(C)n2)nc1-c1c[nH]c2c(NC(=O)CN3CC[C@H](Oc4cnc(-c5ccccc5)nc4)C3)cccc12` (stereo in doubt) [Example 257, N-(3-(2-((1,5-dimethyl-1H-pyrazol-3-yl)amino)-5-methylpyrimidin-4-yl)-1H-indol-7-yl)-2-(3-((2-phenylpyrimidin-5-yl)oxy)pyrrolidin-1-yl)acetamide] the value was 6.00 to 7.00. With `Cc1cnc(Nc2cc(C)n(C)n2)nc1-c1c[nH]c2c(N3Cc4c(cccc4-c4ccc(Cl)nc4)C3=O)cccc12` [Example 405, 4-(6-chloropyridin-3-yl)-2-(3-(2-((1,5-dimethyl-1H-pyrazol-3-yl)amino)-5-methylpyrimidin-4-yl)-1H-indol-7-yl)isoindolin-1-one], the pIC50 is 7.00 to 8.00. The figure for `Cc1cnc(Nc2cc(C)n(C)n2)nc1-c1c[nH]c2c(N3Cc4c(/C=C/c5cccc(F)c5)cccc4C3=O)cccc12` [Example 410, (E)-2-(3-(2-((1,5-dimethyl-1H-pyrazol-3-yl)amino)-5-methylpyrimidin-4-yl)-1H-indol-7-yl)-4-(3-fluorostyryl)isoindolin-1-one] is 6.00 to 7.00. The figure for `Cc1cnc(Nc2cc(C)n(C)n2)nc1-c1c[nH]c2c(N3Cc4c(NS(=O)(=O)C(C)C)cccc4C3=O)cccc12` [Example 344, N-(2-(3-(2-((1,5-dimethyl-1H-pyrazol-3-yl)amino)-5-methylpyrimidin-4-yl)-1H-indol-7-yl)-1-oxoisoindolin-4-yl)propane-2-sulfonamide] is greater than 8.00. For `Cc1cnc(Nc2cc(C)n(C)n2)nc1-c1c[nH]c2c(N3Cc4c(NC(=O)C5Cc6ccccc6C5)cccc4C3=O)cccc12` [Example 314, N-(2-(3-(2-((1,5-dimethyl-1H-pyrazol-3-yl)amino)-5-methylpyrimidin-4-yl)-1H-indol-7-yl)-1-oxoisoindolin-4-yl)-2,3-dihydro-1H-indene-2-carboxamide] the value was 7.00 to 8.00; for `Cc1cnc(Nc2cc(C)n(C)n2)nc1-c1c[nH]c2c(NC(=O)CN3CC[C@H](Oc4ncc(F)c(N(C)c5ccccc5)n4)C3)cccc12` [Example 184, (S)-N-(3-(2-((1,5-dimethyl-1H-pyrazol-3-yl)amino)-5-methylpyrimidin-4-yl)-1H-indol-7-yl)-2-(3-((5-fluoro-4-(methyl(phenyl)amino)pyrimidin-2-yl)oxy)pyrrolidin-1-yl)acetamide], 7.00 to 8.00; for `Cc1cnc(Nc2cc(C)n(C)n2)nc1-c1c[nH]c2c(NC(=O)CN3CC[C@H](C(=O)N4CCNC(=O)C4)C3)cccc12` [Example 62, (S)-N-(3-(2-((1,5-dimethyl-1H-pyrazol-3-yl)amino)-5-methylpyrimidin-4-yl)-1H-indol-7-yl)-2-(3-(3-oxopiperazine-1-carbonyl)pyrrolidin-1-yl)acetamide], 6.00 to 7.00. Regarding `COc1ccccc1-c1cccc2c1CN(c1cccc3c(-c4nc(Nc5cc(C)n(C)n5)ncc4C)c[nH]c13)C2=O` [Example 438, 2-(3-(2-((1,5-dimethyl-1H-pyrazol-3-yl)amino)-5-methylpyrimidin-4-yl)-1H-indol-7-yl)-4-(2-methoxyphenyl)isoindolin-1-one], the pIC50 is 7.00 to 8.00. As for `Cc1cnc(Nc2cc(C)n(C)n2)nc1-c1c[nH]c2c(N3Cc4c(cccc4-c4cccn4C(=O)OC(C)(C)C)C3=O)cccc12` [Example 443, tert-butyl 2-(2-(3-(2-((1,5-dimethyl-1H-pyrazol-3-yl)amino)-5-methylpyrimidin-4-yl)-1H-indol-7-yl)-1-oxoisoindolin-4-yl)-1H-pyrrole-1-carboxylate], the pIC50 was 7.00 to 8.00. Consider `COc1ccc2c(c1)C(=O)N(c1cccc3c(-c4nc(Nc5cc(C)n(C)n5)ncc4C)c[nH]c13)C2` [Example 279, 2-(3-(2-((1,5-dimethyl-1H-pyrazol-3-yl)amino)-5-methylpyrimidin-4-yl)-1H-indol-7-yl)-6-methoxyisoindolin-1-one], for which the pIC50 is 7.00 to 8.00.

Turning to `Cc1cnc(Nc2cc(C)n(C)n2)nc1-c1c[nH]c2c(NC(=O)CN3C[C@@H](F)[C@@H](O)C3)cccc12` [Example 50, N-(3-(2-((1,5-dimethyl-1H-pyrazol-3-yl)amino)-5-methylpyrimidin-4-yl)-1H-indol-7-yl)-2-((3R,4S)-3-fluoro-4-hydroxypyrrolidin-1-yl)acetamide], the pIC50 was 7.00 to 8.00.

`Cc1cnc(Nc2cc(C)n(C)n2)nc1-c1c[nH]c2c(NC(=O)CN3CC[C@H](Oc4cc(N5CCOCC5)ncn4)C3)cccc12` [Example 164, (S)-N-(3-(2-((1,5-dimethyl-1H-pyrazol-3-yl)amino)-5-methylpyrimidin-4-yl)-1H-indol-7-yl)-2-(3-((6-morpholinopyrimidin-4-yl)oxy)pyrrolidin-1-yl)acetamide]: the pIC50 is greater than 8.00. In the case of `Cc1cnc(Nc2cc(C)n(C)n2)nc1-c1c[nH]c2c(N3Cc4c(NC(=O)C5CCCCCC5)cccc4C3=O)cccc12` [Example 312, N-(2-(3-(2-((1,5-dimethyl-1H-pyrazol-3-yl)amino)-5-methylpyrimidin-4-yl)-1H-indol-7-yl)-1-oxoisoindolin-4-yl)cycloheptanecarboxamide], the pIC50 is 7.00 to 8.00. The figure for `Cc1cnc(Nc2cc(C)n(C)n2)nc1-c1c[nH]c2c(NC(=O)CN3CC[C@H](Oc4cncc(NC5CC5)n4)C3)cccc12` [Example 243, (S)-2-(3-((6-(cyclopropylamino)pyrazin-2-yl)oxy)pyrrolidin-1-yl)-N-(3-(2-((1,5-dimethyl-1H-pyrazol-3-yl)amino)-5-methylpyrimidin-4-yl)-1H-indol-7-yl)acetamide] is 7.00 to 8.00. For `Cc1cnc(Nc2cc(C)n(C)n2)nc1-c1c[nH]c2c(N3Cc4c(cccc4-c4cc(N)ncn4)C3=O)cccc12` [Example 456, 4-(6-aminopyrimidin-4-yl)-2-(3-(2-((1,5-dimethyl-1H-pyrazol-3-yl)amino)-5-methylpyrimidin-4-yl)-1H-indol-7-yl)isoindolin-1-one] the value was greater than 8.00. Regarding `Cc1cnc(Nc2cc(C)n(C)n2)nc1-c1c[nH]c2c(NC(=O)CN3CC[C@H](Oc4nc(N5CCN(C)CC5)ncc4F)C3)cccc12` [Example 233, (S)-N-(3-(2-((1,5-dimethyl-1H-pyrazol-3-yl)amino)-5-methylpyrimidin-4-yl)-1H-indol-7-yl)-2-(3-((5-fluoro-2-(4-methylpiperazin-1-yl)pyrimidin-4-yl)oxy)pyrrolidin-1-yl)acetamide], the pIC50 was greater than 8.00. For `Cc1cnc(Nc2cc(C)n(C)n2)nc1-c1c[nH]c2c(NC(=O)CN3CC[C@H](Oc4cc(N5CCCCC5)ncn4)C3)cccc12` [Example 162, (S)-N-(3-(2-((1,5-dimethyl-1H-pyrazol-3-yl)amino)-5-methylpyrimidin-4-yl)-1H-indol-7-yl)-2-(3-((6-(piperidin-1-yl)pyrimidin-4-yl)oxy)pyrrolidin-1-yl)acetamide] the value was greater than 8.00; for `Cc1cnc(Nc2cc(C)n(C)n2)nc1-c1c[nH]c2c(N3Cc4c(NC(=O)C5CCC(=O)CC5)cccc4C3=O)cccc12` [Example 320, N-(2-(3-(2-((1,5-dimethyl-1H-pyrazol-3-yl)amino)-5-methylpyrimidin-4-yl)-1H-indol-7-yl)-1-oxoisoindolin-4-yl)-4-oxocyclohexane-1-carboxamide], greater than 8.00. For `Cc1cnc(Nc2cc(C)n(C)n2)nc1-c1c[nH]c2c(N3Cc4c(-c5ccccc5)ccnc4C3=O)cccc12` [Example 493, 6-(3-(2-((1,5-dimethyl-1H-pyrazol-3-yl)amino)-5-methylpyrimidin-4-yl)-1H-indol-7-yl)-4-phenyl-5,6-dihydro-7H-pyrrolo[3,4-b]pyridin-7-one] the value was greater than 8.00; for `Cc1cnc(Nc2cc(C)n(C)n2)nc1-c1c[nH]c2c(N3Cc4cccc(NC(=O)c5ccccc5)c4C3=O)cccc12` [Example 293, N-(2-(3-(2-((1,5-dimethyl-1H-pyrazol-3-yl)amino)-5-methylpyrimidin-4-yl)-1H-indol-7-yl)-3-oxoisoindolin-4-yl)benzamide], 6.00 to 7.00.
